Results published in patent US20250257055A1, “TERTIARY AMIDE DERIVATIVES SUBSTITUTED WITH 4-MEMBERED RING STRUCTURE” (Sumitomo Pharma Co., Ltd., priority 2024, published 2025).
pIC50: −log10 of the molar value. Values after ≈ are worked out from the molar mass of the structure shown. Where two headings read alike, the source gives them in different places.

Legend:
Solubility test = assay type: physicochemical; settings: aqueous buffer, thermodynamic from solid, 5° C., overnight
Protocol: The solubility was measured for Examples 7, 10, 20, 23, 24, and 30 to 34, Comparative Example 1, and Comparative Example 2. The test compound was added to 10 mmol/L glycine buffer (pH 2.0) and 10 mmol/L citrate buffer (pH 3.0), and the mixture was stored in a thermostatic chamber at 5° C. After standing overnight, the mixture was filtered through a membrane filter, and the concentration of the filtrate was measured by HPLC.

Kuramochi cells = test: Cell proliferation inhibition experiment using Kuramochi cells; assay type: cell-based; settings: 144 h, cultured for 6 days, CellTiter-Glo
Outline: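 Ovarian cancer Kuramochi cells in RPMI-1640 with 10% FBS, seeded at 500 cells/well and dosed one day later at 0.1% final DMSO. After 6 days of culture at 37°C, 5% CO2, viability read by CellTiter-Glo luminescence.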

RMGI cells = test: Cell proliferation inhibition experiment using RMGI cells; assay type: cell-based; settings: Homo sapiens, RMG-I, 144 h, cultured for 6 days, CellTiter-Glo
Protocol: RMGI cells (derived from ovarian cancer) were obtained from JCRB cell bank. RMGI cells were cultured in Ham's F12 medium containing 10% fetal bovine serum and 1% penicillin/streptomycin under conditions of 37° C. and 5% CO2.
200 cells per well were seeded in a 384-well plate. One day after seeding, Examples 3, 7, 9, 10, 11, 20, and 23 to 25 were added so that the final concentration of DMSO was 0.1%, and the cells were cultured for 6 days. After the culture was completed, the cell viability was measured using CellTiter-Glo Luminescent Cell Viability Assay (Promega, G7570).

hSERT = hSERT (Homo sapiens (Human), UniProt P31645); test: Serotonin receptor inhibitory activity evaluation (binding assay, HEK293/hSERT membranes); settings: HEK293/hSERT membrane preparation, [3H]Paroxetin
Protocol: The binding evaluation assay was outsourced to Eurofins. Specifically, HEK293/hSERT cells were homogenized in a buffer consisting of 100 mmol/L NaCl, 1 μmol/L Leupeptin, 10 μmol/L PMSF, and 50 mmol/L Tris-HCl (pH7.4). The membrane pellet obtained by centrifugation was resuspended in an incubation buffer consisting of 50 mmol/L Tris-HCl (pH 7.4), 120 mmol/L NaCl, and 5 mmol/L KCl to prepare a membrane preparation. The test compound (1-10 μmol/L DMSO solution), the membrane preparation, and 0.4 nmol/L [^3H]Paroxetin were mixed and incubated at 25° C. for 60 minutes. The cell membrane-[^3H]Paroxetin complex was bound to a GF/B filter mat by vacuum filtration and washed with 50 mmol/L Tris-HCl (pH 7.4). The effect on the receptor was assessed by measuring radioactivity using a scintillation counter.

G-401 cells = test: Cell proliferation inhibition experiment using G-401 cells; assay type: cell-based; settings: Homo sapiens, 72 h, cultured for 3 days, CellTiter-Glo
Outline: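 Malignant rhabdoid tumor-derived cells, grown in McCoy's 5A with 10% FBS, were seeded at 500 cells/well and dosed one day later (final DMSO 0.1%). After 3 days of culture at 37° C, viability was read by CellTiter-Glo luminescence.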

G-401 xenograft [1] = test: Drug efficacy evaluation by intravenous administration using G-401 xenograft mice model; assay type: in vivo; settings: for antitumor effect (in words): G-401 xenograft model, intravenous administration; for T/C: intravenous (tail vein), 14 days
Protocol: G-401 cells (ATCC) were intradermally transplanted into 4-7-week-old BALB/cAnNCrj-nu/nu mice (CAnN.Cg-Foxn1/CrlCrlj, Jackson Laboratory Japan) at 5×10^5 cells/mouse. After confirming the engraftment of G-401 cells 10-40 days after transplantation, the test compound suspended in a solvent such as 10 mmol/L glycine buffer solution (pH 2.0) was administered via the tail vein at least once a week at a dose of 0.015-20 mg/kg. The tumor volume was measured over time from the start of administration, and the effect of tumor volume reduction by administration of the test compound was evaluated. The tumor volume can be calculated from the following equation using the minor axis and major axis of the tumor measured with an electronic caliper (Mitutoyo).
A control administration group administered with only a solvent such as 10 mmol/L glycine buffer solution (pH 2.0) and a test compound administration group were compared, and the antitumor effect was evaluated by calculating T/C from the following equation.

hDAT = hDAT (Homo sapiens (Human), UniProt Q01959); test: Dopamine receptor inhibitory activity evaluation (binding assay, CHO-S/hDAT membranes); settings: CHO-S/hDAT membrane preparation
Protocol: The binding evaluation assay was outsourced to Eurofins. Specifically, CHO-S/hDAT cells were homogenized in an incubation buffer consisting of 50 mmol/L Tris-HCl, pH 7.4, 100 mmol/L NaCl, 1 μmol/L Leupeptin, and 10 μmol/L PMSF. The membrane pellet obtained by centrifugation was resuspended in the incubation buffer to prepare a membrane preparation. The test compound (1-10 μmol/L DMSO solution), the membrane preparation, and 0.15 nmol/L […] were mixed and incubated at 4° C. for 180 minutes. The cell membrane-[^125I]RTI-55 complex was bound to a GF/B filter mat by vacuum filtration and washed with 50 mmol/L Tris-HCl, pH 7.4. The effect on the receptor was assessed by measuring radioactivity using a scintillation counter.

G-401 xenograft [2] = test: Drug efficacy evaluation by oral administration using G-401 xenograft model mice; assay type: in vivo; settings: for antitumor effect (in words): G-401 xenograft model, oral administration; for T/C: oral twice a day
Protocol: G-401 cells (ATCC) were intradermally transplanted into 4-7-week-old BALB/cAnNCrj-nu/nu mice (CAnN.Cg-Foxn1/CrlCrlj, Jackson Laboratory Japan) at 5×10^5 cells/mouse. After confirming the engraftment of G-401 cells 10-40 days after transplantation, the test compound suspended in a solvent such as 0.5% methylcellulose solution was orally administered twice a day at a dose of 1-100 mg/kg. The tumor volume was measured over time from the start of administration, and the effect of tumor volume reduction by administration of the test compound was evaluated. The tumor volume can be calculated from the following equation using the minor axis and major axis of the tumor measured with an electronic caliper (Mitutoyo).
A control administration group administered with only a solvent such as 0.5% methylcellulose solution and a test compound administration group were compared, and the antitumor effect was evaluated by calculating T/C from the following equation.

[3] = 10 mmol/L citrate buffer (pH 3.0), read-out: Solubility in pH 3.0 buffer
[4] = 10 mmol/L glycine buffer (pH 2.0), read-out: Solubility in pH 2.0 buffer

hDAT, sequence (Q01959 whole entry): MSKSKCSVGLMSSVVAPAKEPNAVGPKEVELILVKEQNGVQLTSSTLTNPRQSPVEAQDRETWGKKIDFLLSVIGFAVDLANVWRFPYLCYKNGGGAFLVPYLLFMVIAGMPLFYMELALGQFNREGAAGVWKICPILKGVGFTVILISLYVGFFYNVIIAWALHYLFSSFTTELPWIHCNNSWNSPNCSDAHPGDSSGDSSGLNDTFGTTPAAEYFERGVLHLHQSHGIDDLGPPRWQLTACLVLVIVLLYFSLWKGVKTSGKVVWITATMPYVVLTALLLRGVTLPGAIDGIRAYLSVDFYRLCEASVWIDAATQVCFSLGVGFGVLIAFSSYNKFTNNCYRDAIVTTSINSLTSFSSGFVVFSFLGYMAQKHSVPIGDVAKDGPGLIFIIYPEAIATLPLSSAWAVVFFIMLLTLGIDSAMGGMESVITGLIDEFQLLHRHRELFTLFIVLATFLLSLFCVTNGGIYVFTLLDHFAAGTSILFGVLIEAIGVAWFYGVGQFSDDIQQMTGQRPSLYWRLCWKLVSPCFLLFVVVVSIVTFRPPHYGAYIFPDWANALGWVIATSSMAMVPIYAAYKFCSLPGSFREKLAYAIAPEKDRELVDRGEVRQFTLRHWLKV
hSERT, sequence (P31645 whole entry): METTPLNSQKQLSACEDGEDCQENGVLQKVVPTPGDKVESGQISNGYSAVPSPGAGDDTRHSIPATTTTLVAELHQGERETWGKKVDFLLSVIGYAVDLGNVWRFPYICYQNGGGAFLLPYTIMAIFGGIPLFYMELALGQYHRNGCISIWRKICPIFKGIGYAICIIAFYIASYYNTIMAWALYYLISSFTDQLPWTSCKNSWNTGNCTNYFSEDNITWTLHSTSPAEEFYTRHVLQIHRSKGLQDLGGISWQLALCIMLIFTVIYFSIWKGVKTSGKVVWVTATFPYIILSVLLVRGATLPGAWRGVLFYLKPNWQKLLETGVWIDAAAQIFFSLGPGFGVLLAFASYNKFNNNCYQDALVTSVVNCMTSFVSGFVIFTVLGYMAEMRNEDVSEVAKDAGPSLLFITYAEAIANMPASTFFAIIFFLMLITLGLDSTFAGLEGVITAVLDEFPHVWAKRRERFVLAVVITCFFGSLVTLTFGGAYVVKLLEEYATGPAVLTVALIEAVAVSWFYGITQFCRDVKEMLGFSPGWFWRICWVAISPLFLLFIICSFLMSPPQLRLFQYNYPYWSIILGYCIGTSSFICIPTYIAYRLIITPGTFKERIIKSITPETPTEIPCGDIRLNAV

solubility (Solubility test; [3]) [µg/mL]	solubility (Solubility test; [4]) [µg/mL]	inhibition at 10 µM (hSERT) [%]	inhibition at 10 µM (hDAT) [%]	Structure (SMILES)	pIC50 (Kuramochi cells)	pIC50 (RMGI cells)	pIC50 (G-401 cells)	antitumor effect (in words) (G-401 xenograft [1])	T/C (G-401 xenograft [1]; 20 mg/kg) [%]	antitumor effect (in words) (G-401 xenograft [2])	T/C (G-401 xenograft [2]; 20 mg/kg, 21 days) [%]	T/C (G-401 xenograft [2]; 30 mg/kg, 21 days) [%]	T/C (G-401 xenograft [1]; 10 mg/kg) [%]	T/C (G-401 xenograft [2]; 10 mg/kg, 34 days) [%]	T/C (G-401 xenograft [2]; 30 mg/kg, 34 days) [%]	T/C (G-401 xenograft [2]; 3 mg/kg, 21 days) [%]	T/C (G-401 xenograft [2]; 10 mg/kg, 21 days) [%]
> 10000	> 10000	15	6	CN1CC(N(Cc2ccc(F)cn2)C(=O)CN2C(=O)N[C@]3(C[C@@H](F)c4cc(-c5cnn(C6COC6)c5)ccc43)C2=O)(C(F)(F)F)C1 [Example 24, 2-{(1′S,3′R)-3′-fluoro-5′-[1-(oxetan-3-yl)-1H-pyrazol-4-yl]-2,5-dioxo-2′,3′-dihydrospiro[imidazolidine-4,1′-inden]-1-yl}-N-[(5-fluoropyridin-2-yl)methyl]-N-[1-methyl-3-(trifluoromethyl)azetidin-3-yl]acetamide]	6.40	7.43	7.44	strong antitumor effects	44	–	–	–	–	–	–	–	–
8600 (≈ 12 mM)	> 10000	3	7	O=C1N[C@]2(C[C@@H](F)c3cc(-c4cnn(C5CCN(C6COC6)CC5)c4)ccc32)C(=O)N1CC(=O)N(Cc1ccc(F)cn1)C1(C(F)(F)F)COC1 [Example 23, 2-[(1′S,3′R)-3′-fluoro-5′-{1-[1-(oxetan-3-yl)piperidin-4-yl]-1H-pyrazol-4-yl}-2,5-dioxo-2′,3′-dihydrospiro[imidazolidine-4,1′-inden]-1-yl]-N-[(5-fluoropyridin-2-yl)methyl]-N-[3-(trifluoromethyl)oxetan-3-yl]acetamide]	6.23	7.27	7.09	strong antitumor effects	54	strong antitumor effects	81	–	–	–	–	–	–

Continued, compound first:

Structure (SMILES)	solubility (Solubility test; [3]) [µg/mL]	solubility (Solubility test; [4]) [µg/mL]	inhibition at 10 µM (hSERT) [%]	inhibition at 10 µM (hDAT) [%]	pIC50 (Kuramochi cells)	pIC50 (RMGI cells)	pIC50 (G-401 cells)	antitumor effect (in words) (G-401 xenograft [1])	T/C (G-401 xenograft [1]; 20 mg/kg) [%]	antitumor effect (in words) (G-401 xenograft [2])	T/C (G-401 xenograft [2]; 20 mg/kg, 21 days) [%]	T/C (G-401 xenograft [2]; 30 mg/kg, 21 days) [%]	T/C (G-401 xenograft [1]; 10 mg/kg) [%]	T/C (G-401 xenograft [2]; 10 mg/kg, 34 days) [%]	T/C (G-401 xenograft [2]; 30 mg/kg, 34 days) [%]	T/C (G-401 xenograft [2]; 3 mg/kg, 21 days) [%]	T/C (G-401 xenograft [2]; 10 mg/kg, 21 days) [%]
CN1CC(N(Cc2ccc(F)cn2)C(=O)CN2C(=O)N[C@]3(C[C@@H](F)c4cc(-c5cnn(C)c5)ccc43)C2=O)(C(F)(F)F)C1 [Example 20, 2-[(1′S,3′R)-3′-fluoro-5′-(1-methyl-1H-pyrazol-4-yl)-2,5-dioxo-2′,3′-dihydrospiro[imidazolidine-4,1′-inden]-1-yl]-N-[(5-fluoropyridin-2-yl)methyl]-N-[1-methyl-3-(trifluoromethyl)azetidin-3-yl]acetamide]	8600 (≈ 14.2 mM)	> 10000	-1	46	6.49	7.37	7.44	strong antitumor effects	–	strong antitumor effects	80	89	53	–	–	–	–
O=C1N[C@]2(C[C@@H](F)c3cc(-c4cnn(C5CN(C6COC6)C5)c4)ccc32)C(=O)N1CC(=O)N(Cc1ccc(F)cn1)C1(C(F)(F)F)COC1 [Example 7, 2-[(1′S,3′R)-3′-fluoro-5′-{1-[1-(oxetan-3-yl)azetidin-3-yl]-1H-pyrazol-4-yl}-2,5-dioxo-2′,3′-dihydrospiro[imidazolidine-4,1′-inden]-1-yl]-N-[(5-fluoropyridin-2-yl)methyl]-N-[3-(trifluoromethyl)oxetan-3-yl]acetamide]	4600 (≈ 6.69 mM)	> 10000	-1	7	6.53	7.46	7.36	strong antitumor effects	40	strong antitumor effects	–	–	–	31	80	–	–
CN1CC(N(Cc2ccc(F)cc2)C(=O)CN2C(=O)N[C@]3(C[C@@H](F)c4cc(-c5cnn(C)c5)ccc43)C2=O)(C(F)(F)F)C1 [Example 10, 2-[(1′S,3′R)-3′-fluoro-5′-(1-methyl-1H-pyrazol-4-yl)-2,5-dioxo-2′,3′-dihydrospiro[imidazolidine-4,1′-inden]-1-yl]-N-[(4-fluorophenyl)methyl]-N-[1-methyl-3-(trifluoromethyl)azetidin-3-yl]acetamide]	1600 (≈ 2.66 mM)	> 10000	-5	6	7.18	8.22	8.00	strong antitumor effects	–	strong antitumor effects	–	–	73	–	–	53	102
